{"source": "patent US20100093531A1", "about": "(priority 2007, published 2010)", "key": {"Phytophthora infestans [1]": {"test_system": "Phytophthora infestans", "assay": "microbe, parasite or virus in culture", "format": "cell-based", "conditions": "for Efficacy in % of the untreated control: individual active compound, microtiter test, day 7"}, "Phakopsora pachyrhizi": {"test_system": "Phakopsora pachyrhizi", "assay": "Curative control of soy bean rust on soy beans caused by Phakopsora pachyrhizi (greenhouse)", "format": "in vivo", "conditions": "individual active compound, 14 days", "method": "(§1) Preparation: The spray solutions were prepared in several steps:\n(§2) A stock solution was prepared: a mixture of acetone and/or DMSO and the wetting agent/emulsifier Uniperol, which is based on ethoxylated alkylphenoles, in a relation (volume) solvent-emulsifier of 99 to 1 was added to 25 mg of the compound to give a total of 10 ml. Water was then added to total volume of 100 ml.\n(§3) This stock solution was diluted with the described solvent-emulsifier-water mixture to the given concentration.\nLeaves of pot-grown soy bean seedlings were inoculated with spores of Phakopsora pachyrhizi. To ensure the success the artificial inoculation, the plants were transferred to a humid chamber with a relative humidity of about 95% and 23 to 27° C. for 24 h. The next day the plants were sprayed to run-off with an aqueous suspension, containing the concentration of active ingredient as described below. The plants were allowed to air-dry. Then the trial plants were cultivated for 14 days in a greenhouse chamber at 23-27° C. and a relative humidity between 60 and 80%. The extent of fungal attack on the leaves was visually assessed as % diseased leaf area.\n(§4) Evaluation was carried out analogously to example 1."}, "Plasmopara viticola": {"test_system": "Plasmopara viticola", "assay": "Fungicidal control of grape downy mildew caused by Plasmopara viticola (greenhouse)", "format": "in vivo", "conditions": "individual active compound", "method": "as §1, §2, §3\nGrape cuttings were grown in pots to the 4 to 5 leaf stage. These plants were sprayed to run-off with an aqueous suspension, containing the concentration of active ingredient or their mixture mentioned in the table below. The plants were allowed to air-dry. The next day they were inoculated with an aqueous spore suspension of Plasmopara viticola by spraying it at the lower leaf-side. Then the trial plants were immediately transferred for 24 h to a humid chamber with 22-24° C. and a relative humidity close to 100%. For a period of 5 days, cultivation followed in a greenhouse at 20-25° C. and a relative humidity about 50-80%. To stimulate the outbreak of the disease symptoms, the plants were transferred to a humid chamber again for 24 hours. Then the extent of fungal attack on the lower leaf surface was visually assessed as % diseased leaf area.\nas §4"}, "Phytophthora infestans [2]": {"test_system": "Phytophthora infestans", "format": "in vivo", "conditions": "individual active compound, tomato, 6 days after inoculation"}, "Botrytis cinerea": {"test_system": "Botrytis cinerea", "assay": "Preventative control of grey mold (Botrytis cinerea) on leaves of green pepper (greenhouse)", "format": "in vivo", "conditions": "individual active compound, 5 days after inoculation", "method": "as §1, §2, §3\nYoung seedlings of green pepper were grown in pots to the 2 to 3 leaf stage. These plants were sprayed to run-off with an aqueous suspension, containing the concentration of active ingredient or their mixture mentioned in the table below. The next day the treated plants were inoculated with a spore suspension of Botrytis cinerea in a 2% aqueous biomalt solution. Then the trial plants were immediately transferred to a dark, humid chamber. After 5 days at 22 to 24° C. and a relative humidity close to 100% the extent of fungal attack on the leaves was visually assessed as % diseased leaf area.\nas §4"}, "Septoria tritici": {"test_system": "Septoria tritici", "assay": "Activity against Septoria tritici in the microtiter test", "format": "cell-based", "conditions": "individual active compound, day 7"}, "[3]": {"conditions": "Phytophthora infestans, 168 h, read-out: Efficacy in % of the untreated control"}}, "note": "Where two headings read alike, the source gives them in different places.", "data": [{"smiles": "CCNC(=NNc1c(Cl)cc(C(F)(F)F)cc1Cl)C1(C)CC1(Cl)Cl", "note": "(stereo not drawn) [A.23-1, N-R′-2,2-dihalo-1-R″cyclo-propanecarboxamide-2-(2,6-dichloro-α,α,α-fluoro-p-tolyl)hydrazone, wherein R′ is ethyl, halo is chloro, and R″ is methyl]", "values": [{"measurement": "Efficacy in % of the untreated control", "setting": "Phytophthora infestans [1]; 1 ppm", "value": 10, "unit": "%"}, {"measurement": "Efficacy in % of the untreated control", "setting": "Phytophthora infestans [1]; 4 ppm", "value": 15, "unit": "%"}, {"measurement": "Efficacy in % of the untreated control", "setting": "Phytophthora infestans [1]; 16 ppm", "value": 15, "unit": "%"}, {"measurement": "Efficacy in % of the untreated control", "setting": "Phakopsora pachyrhizi; 63 ppm in the spray liquor", "value": 0, "unit": "%"}]}, {"smiles": "C/C(=N\\C#N)N(C)Cc1ccc(Cl)nc1", "note": "[Acetamipyrid]", "values": [{"measurement": "Efficacy in % of the untreated control", "setting": "Phytophthora infestans [1]; 4 ppm", "value": 7, "unit": "%"}, {"measurement": "Efficacy in % of the untreated control", "setting": "Phytophthora infestans [1]; 16 ppm", "value": 9, "unit": "%"}, {"measurement": "Efficacy in % of the untreated control", "setting": "Plasmopara viticola; 16 ppm in the spray liquor", "value": 0, "unit": "%"}]}, {"smiles": "CNC(=O)Oc1cccc2c1OC(C)(C)C2", "note": "[Carbofuran, reference compound]", "values": [{"measurement": "inhibition of growth at 1 ppm", "setting": "Phytophthora infestans [1]; [3]", "value": 6, "unit": "%"}, {"measurement": "inhibition of growth at 4 ppm", "setting": "Phytophthora infestans [1]; [3]", "value": 8, "unit": "%"}, {"measurement": "inhibition of growth at 16 ppm", "setting": "Phytophthora infestans [1]; [3]", "value": 12, "unit": "%"}, {"measurement": "Efficacy in % of the untreated control", "setting": "Phytophthora infestans [2]; 16 ppm in the spray liquor", "value": 0, "unit": "%"}, {"measurement": "Efficacy in % of the untreated control", "setting": "Phakopsora pachyrhizi; 16 ppm in the spray liquor", "value": 0, "unit": "%"}]}, {"smiles": "CN/C(=N\\[N+](=O)[O-])NCc1cnc(Cl)s1", "note": "[Clothianidin]", "values": [{"measurement": "inhibition of growth at 1 ppm", "setting": "Phytophthora infestans [1]; [3]", "value": 2, "unit": "%"}, {"measurement": "inhibition of growth at 4 ppm", "setting": "Phytophthora infestans [1]; [3]", "value": 2, "unit": "%"}, {"measurement": "inhibition of growth at 16 ppm", "setting": "Phytophthora infestans [1]; [3]", "value": 11, "unit": "%"}]}, {"smiles": "N#Cc1nn(-c2c(Cl)cc(C(F)(F)F)cc2Cl)c(N)c1[S+]([O-])C(F)(F)F", "note": "(stereo not drawn) [Fipronil, reference compound]", "values": [{"measurement": "Efficacy in % of the untreated control", "setting": "Botrytis cinerea; 63 ppm in the spray liquor", "value": 10, "unit": "%"}, {"measurement": "inhibition of growth at 1 ppm", "setting": "Phytophthora infestans [1]; [3]", "value": 1, "unit": "%"}, {"measurement": "inhibition of growth at 4 ppm", "setting": "Phytophthora infestans [1]; [3]", "value": 16, "unit": "%"}, {"measurement": "inhibition of growth at 16 ppm", "setting": "Phytophthora infestans [1]; [3]", "value": 20, "unit": "%"}, {"measurement": "Efficacy in % of the untreated control", "setting": "Phytophthora infestans [2]; 16 ppm in the spray liquor", "value": 0, "unit": "%"}, {"measurement": "Efficacy in % of the untreated control", "setting": "Phytophthora infestans [2]; 63 ppm in the spray liquor", "value": 0, "unit": "%"}, {"measurement": "Efficacy in % of the untreated control", "setting": "Plasmopara viticola; 16 ppm in the spray liquor", "value": 0, "unit": "%"}]}, {"smiles": "O=[N+]([O-])NC1=NCCN1Cc1ccc(Cl)nc1", "note": "[Imidacloprid, reference compound]", "values": [{"measurement": "inhibition of growth at 1 ppm", "setting": "Phytophthora infestans [1]; [3]", "value": 5, "unit": "%"}, {"measurement": "inhibition of growth at 4 ppm", "setting": "Phytophthora infestans [1]; [3]", "value": 6, "unit": "%"}, {"measurement": "inhibition of growth at 16 ppm", "setting": "Phytophthora infestans [1]; [3]", "value": 11, "unit": "%"}, {"measurement": "Efficacy in % of the untreated control", "setting": "Phytophthora infestans [2]; 16 ppm in the spray liquor", "value": 22, "unit": "%"}]}, {"smiles": "N#Cc1ccc(C/C(=N\\NC(=O)Nc2ccc(OC(F)(F)F)cc2)c2cccc(C(F)(F)F)c2)cc1", "note": "[Metaflumizon]", "values": [{"measurement": "Efficacy in % of the untreated control", "setting": "Phytophthora infestans [1]; 4 ppm", "value": 6, "unit": "%"}, {"measurement": "Efficacy in % of the untreated control", "setting": "Phytophthora infestans [1]; 16 ppm", "value": 12, "unit": "%"}, {"measurement": "Efficacy in % of the untreated control", "setting": "Plasmopara viticola; 16 ppm in the spray liquor", "value": 0, "unit": "%"}, {"measurement": "Efficacy in % of the untreated control", "setting": "Septoria tritici; 63 ppm", "value": 0, "unit": "%"}]}, {"smiles": "CCc1nc2ncnn2c(N)c1CCC(C)CC(C)(C)C", "note": "(stereo not drawn) [Tab. 1, # I-113, 5-ethyl-6-(3,5,5-trimethylhexyl)[1,2,4]triazolo[1,5-a]pyrimidin-7-ylamine]", "values": [{"measurement": "inhibition of growth at 4 ppm", "setting": "Phytophthora infestans [1]; [3]", "value": 11, "unit": "%"}, {"measurement": "Efficacy in % of the untreated control", "setting": "Phytophthora infestans [2]; 4 ppm in the spray liquor", "value": 22, "unit": "%"}]}, {"smiles": "CCCCCCCCc1c(COC)nc2ncnn2c1N", "note": "[Tab. 1, # I-245, 5-methoxymethyl-6-octyl-[1,2,4]triazolo[1,5-a]pyrimidin-7-ylamine]", "values": [{"measurement": "inhibition of growth at 0.25 ppm", "setting": "Phytophthora infestans [1]; [3]", "value": 10, "unit": "%"}, {"measurement": "Efficacy in % of the untreated control", "setting": "Phytophthora infestans [2]; 16 ppm in the spray liquor", "value": 0, "unit": "%"}, {"measurement": "Efficacy in % of the untreated control", "setting": "Phakopsora pachyrhizi; 4 ppm in the spray liquor", "value": 0, "unit": "%"}, {"measurement": "Efficacy in % of the untreated control", "setting": "Phakopsora pachyrhizi; 16 ppm in the spray liquor", "value": 0, "unit": "%"}, {"measurement": "Efficacy in % of the untreated control", "setting": "Septoria tritici; 16 ppm", "value": 4, "unit": "%"}]}, {"smiles": "CCCCCCCCc1nc2ncnn2c(N)c1CC", "note": "[Tab. 1, # I-290, 6-ethyl-5-octyl-[1,2,4]triazolo[1,5-a]pyrimidin-7-ylamine]", "values": [{"measurement": "Efficacy in % of the untreated control", "setting": "Botrytis cinerea; 16 ppm in the spray liquor", "value": 0, "unit": "%"}, {"measurement": "Efficacy in % of the untreated control", "setting": "Plasmopara viticola; 4 ppm in the spray liquor", "value": 0, "unit": "%"}, {"measurement": "Efficacy in % of the untreated control", "setting": "Plasmopara viticola; 16 ppm in the spray liquor", "value": 56, "unit": "%"}]}, {"smiles": "Cc1nc2ncnn2c(N)c1-c1ccc(Cl)c(Cl)c1", "note": "[Tab. 1, I-9, 6-(3,4-dichlorophenyl)-5-methyl-[1,2,4]triazolo[1,5-a]pyrimidin-7-ylamine]", "values": [{"measurement": "inhibition of growth at 1 ppm", "setting": "Phytophthora infestans [1]; [3]", "value": 64, "unit": "%"}, {"measurement": "Efficacy in % of the untreated control", "setting": "Plasmopara viticola; 4 ppm in the spray liquor", "value": 0, "unit": "%"}, {"measurement": "Efficacy in % of the untreated control", "setting": "Septoria tritici; 16 ppm", "value": 12, "unit": "%"}]}, {"smiles": "CCCCCCCCc1c(CC)nc2ncnn2c1N", "note": "[Tab. 1, I-110, 5-ethyl-6-octyl-[1,2,4]triazolo[1,5-a]pyrimidin-7-ylamine]", "values": [{"measurement": "inhibition of growth at 1 ppm", "setting": "Phytophthora infestans [1]; [3]", "value": 7, "unit": "%"}]}, {"smiles": "CC1(C)C(C=C(Cl)Cl)C1C(=O)OC(C#N)c1cccc(Oc2ccccc2)c1", "note": "(stereo not drawn) [alpha-Cypermethrin]", "values": [{"measurement": "inhibition of growth at 4 ppm", "setting": "Phytophthora infestans [1]; [3]", "value": 7, "unit": "%"}, {"measurement": "inhibition of growth at 16 ppm", "setting": "Phytophthora infestans [1]; [3]", "value": 9, "unit": "%"}]}, {"smiles": "CC1(C)C(C=C(Cl)Cl)C1C(=O)OC(C#N)c1cccc(Oc2ccccc2)c1", "note": "(stereo not drawn) [α-Cypermethrin]", "values": [{"measurement": "Efficacy in % of the untreated control", "setting": "Septoria tritici; 63 ppm", "value": 9, "unit": "%"}]}, {"smiles": "CC1(C)C(C=C(Cl)Cl)C1C(=O)OC(C#N)c1cccc(Oc2ccccc2)c1", "note": "(stereo not drawn) [α-Cypermetrin]", "values": [{"measurement": "Efficacy in % of the untreated control", "setting": "Plasmopara viticola; 63 ppm in the spray liquor", "value": 0, "unit": "%"}]}]}
